Like-named read-outs stand apart in the source and are kept apart here.
Legend:
[1] = test system: SARS-CoV-2 (USA_WA1/2020); assay: microbe, parasite or virus in culture; type: cell-based; conditions: for EC50: read-out: CPE EC50
Vero E6 cells = Vero E6 cells without virus; for CC50: read-out: Cytotox CC50
[2] = SARS-CoV-2 CPE assay, Vero E6 cells
[3] = SARS-CoV-2 CPE assay, Vero E6 cells, confirmed anti-SARS-CoV-2 compounds
[4] = SARS-CoV-2 CPE assay, Vero E6 cells, efficacy
[5] = […], DMSO 0%, no-virus control 100%, hit confirmation

Row | Structure (SMILES) | CPE % Efficacy [1, 2] [%] | EC50 [1, 2] [µM] | % Cytotox (Vero E6 cells; cytotoxicity counter-assay) [%] | CC50 (Vero E6 cells; cytotoxicity counter-assay) [µM] | EC50 [1, 3] [µM] | CPE % Efficacy [1, 4] [%] | CPE % Efficacy [1, 5] [%] | EC50 [1] [µM] | % Cytotox (Vero E6 cells; 72 h) [%]
1 | O=S(=O)(c1cccc2c(I)cccc12)N1CCCNCC1 [ML-7] | 36.2 | 12.6 | 20.3 | 19.9 |  |  |  |  | 
2 | O=S(=O)(c1cccc2c(Cl)cccc12)N1CCCNCC1 [ML-9] | 91.0 | 12.6 | 23.3 | 11.2 |  |  |  |  | 
3 | COc1ccc(C2CC(c3ccccc3)=NN2c2ccc(S(N)(=O)=O)cc2)cc1 (stereo not shown) [ML-141] |  |  | 23.8 |  | 8.91 | 65.2 |  |  | 
4 | c1ccc(-c2ccc(CNc3nc(-c4ccccn4)nnc3-c3ccccc3)cc2)cc1 [ML-228] |  |  | 74.8 | 0.56 | 0.63 | 69.4 |  |  | 
5 | C(=N\Nc1nc(Nc2ccccc2)nc(N2CCOCC2)n1)/c1c[nH]c2ccccc12 [MLS000543798] |  |  | 33.6 | 0.45 | 0.11 | 87.4 |  |  | 
6 | Cn1cc(-c2ccncc2)c(-c2ccc(OCc3ccc4ccccc4n3)cc2)n1 [MP-10] |  |  | 85.1 |  | 4.47 | 31.1 |  |  | 
7 | COc1cc(C(=O)NC(=N)Nc2ccc(C)c(NC(=O)c3ccc(-c4ccccc4)cc3)c2)cc(OC)c1OC [MRT-83] | 56.4 | 11.2 | 37.9 | 10 |  |  |  |  | 
8 | COc1ccc2c(c1)c(CCN(C)C)cn2S(=O)(=O)c1ccccc1.O=C(O)C(=O)O [MS 245 oxalate] | 76.1 | 12.6 | 20.5 | 12.6 |  |  |  |  | 
9 | COc1ccc(C(C)(C)C)cc1CN[C@H]1C2CCN(CC2)[C@H]1C(c1ccccc1)c1ccccc1 [Maropitant] |  |  | 108.2 |  | 3.55 | 83.7 |  |  | 
10 | CN(C)CCC=C1c2ccccc2C(C)(C)c2ccccc21.Cl [Melitracen hydrochloride, reference compound] |  |  |  |  |  |  | 97.1 | 10 | <30
11 | CN1CN(c2ccccc2)C2(CCN(CCCC(=O)c3ccc(F)cc3)CC2)C1=O.Cl [N-Methylspiperone hydrochloride, reference compound] |  |  |  |  |  |  | 80.0 | 4.5 | <30
12 | O=C(CCn1cnc2onc(-c3ccc(F)cc3)c2c1=O)Nc1cccc(C(F)(F)F)c1 [NCGC00126519] |  |  | 65.0 | 10 | 11.2 | 64.8 |  |  | 
13 | O=C(NCCCN1CCN(c2ccccc2F)CC1)c1ccc2nc(Cc3ccccc3)oc2c1 [NCGC00133175] | 95.1 | 14.1 | 25.5 | 15.8 |  |  |  |  | 
14 | C=C1C(=O)O[C@H]2C3=C(C)CCC[C@]3(C)C(=O)C[C@@H]12 [NCGC00168931] |  |  | 69.6 | 10 | 2.24 | 40.6 |  |  | 
15 | C/C=C(\C)C(=O)O[C@H]1CC2C(=C1C)[C@H]1OC(=O)[C@](C)(O)[C@]1(O)[C@H](OC(=O)CCC)C[C@@]2(C)OC(C)=O (stereo partly shown) [NCGC00169033] |  |  | 48.4 | 4.39 | 2.77 | 63.3 |  |  | 
16 | C/C=C(\C)C(=O)O[C@H]1C=C(CO)C(=O)[C@H](OC(C)=O)[C@H]1C(C)C [NCGC00180769] |  |  | 103.1 | 10 | 3.55 | 30.1 |  |  | 
17 | Cn1nnnc1Sc1ncnc2scc(-c3cccc(S(C)(=O)=O)c3)c12 [NCGC00182390] |  |  | 63.9 | 8.91 | 4.47 | 57.8 |  |  | 
18 | COc1cc2nc(N3CCCCC3)nc(NC3CCN(Cc4ccccc4)CC3)c2cc1OC [NCGC00185849] |  |  | 110.3 | 10 | 3.98 | 66.6 |  |  | 

Row | Structure (SMILES) | CPE % Efficacy [1, 2] [%] | EC50 [1, 2] [µM] | % Cytotox (Vero E6 cells; cytotoxicity counter-assay) [%] | CC50 (Vero E6 cells; cytotoxicity counter-assay) [µM] | EC50 [1, 3] [µM] | CPE % Efficacy [1, 4] [%] | CPE % Efficacy [1, 5] [%] | EC50 [1] [µM] | % Cytotox (Vero E6 cells; 72 h) [%]
19 | COc1cc2nc(N3CCCCC3)nc(NC3CCN(C)CC3)c2cc1OC [NCGC00185859] |  |  | 69.3 | 10 | 3.55 | 94.8 |  |  | 
20 | CNC(=O)c1ccc2c(C(=Nc3cccc(CN(C)C)c3)c3ccccc3)c(O)[nH]c2c1 [NCGC00346543] | 94.9 | 12.6 | 22.6 |  |  |  |  |  | 
21 | C=C1Cc2c(Cl)cc3[nH]c4c5c3c2[C@@]2(O)[C@@H]1C[C@@H]2C(C)(C)O[C@H]5C1CC[C@@]2(O)[C@@]35O[C@@H]3[C@H]3OC(C)(C)[C@H]3O[C@H]5CC[C@]2(C)[C@@]41C (stereo partly shown) [NCGC00380694] |  |  | 19.8 | 4.74 | 2.99 | 50.6 |  |  | 
22 | CCC(C)C(=O)OC12C(OC(C)=O)C(C)C3(O)C(C=C(CO)CC4(O)C(=O)C(C)=CC43)C1C2(C)C (stereo not shown) [NCGC00380715] |  |  | 0.0 |  | 0.98 | 45.0 |  |  | 
23 | C/C=C(\C)C(=O)OC1C(C)C2(O)C3C=C(C)C(=O)C3CC(CO)=CC2C2C(C)(C)C12OC(C)=O (stereo not shown) [NCGC00380717] |  |  | 9.9 | 0.35 | 0.78 | 67.0 |  |  | 
24 | CCC(C)C(=O)OC1CC(O)C23C4OCC5(C(O)CC2C1(C)C(O)O4)C3C(=O)CC1(C)C(c2ccoc2)CC2OC215 (stereo not shown) [NCGC00381227] |  |  | 53.1 | 7.8 | 3.91 | 82.9 |  |  | 
25 | C[C@@H]1O[C@@H](O[C@H]2[C@H](OC(=O)[C@]34CCC(C)(C)C[C@H]3C3=CCC5[C@@]6(C)CC[C@H](O[C@@H]7O[C@H](CO[C@@H]8OC[C@H](O)[C@H](O)[C@H]8O)[C@@H](O)[C@H](O)[C@H]7O)C(C)(C)C6CC[C@@]5(C)[C@]3(C)C[C@H]4O)OC[C@@H](O)[C@@H]2O)[C@H](O)[C@H](O)[C@H]1O[C@@H]1OC[C@H](O)[C@H](O[C@@H]2OC[C@@H](O)[C@H](O)[C@H]2O)[C@H]1O (stereo partly shown) [NCGC00384864] |  |  | 58.6 | 1.91 | 0.6 | 46.4 |  |  | 
26 | C[C@@H]1O[C@@H](O[C@@H]2[C@@H](O)[C@H](O[C@@H]3[C@@H](O)[C@@H](O)[C@H](O[C@H]4[C@H](OC(=O)[C@]56CCC(C)(C)C[C@H]5C5=CCC7[C@@]8(C)C[C@H](O)[C@H](O[C@@H]9O[C@@H](C)[C@H](O)[C@@H](O)[C@H]9O)[C@@](C)(CO)C8CC[C@@]7(C)[C@]5(C)C[C@H]6O)O[C@H](C)[C@H](O)[C@@H]4O)O[C@H]3C)OC[C@H]2O)[C@H](O)[C@H](O)[C@H]1O (stereo partly shown) [NCGC00385241] |  |  | 98.7 | 1.91 | 0.85 | 123.9 |  |  | 
27 | C[C@@H]1O[C@@H](O[C@H]2[C@H](OC(=O)[C@]34CCC(C)(C)C[C@H]3C3=CCC5[C@@]6(C)C[C@H](O)[C@H](O[C@@H]7O[C@H](CO[C@@H]8OC[C@H](O)[C@H](O)[C@H]8O)[C@@H](O)[C@H](O)[C@H]7O)C(C)(C)C6CC[C@@]5(C)[C@]3(C)C[C@H]4O)OC[C@@H](O)[C@@H]2O)[C@H](O)[C@H](O[C@@H]2OC[C@](O)(CO)[C@H]2O)[C@H]1O[C@@H]1OC[C@H](O)[C@H](O[C@@H]2OC[C@@H](O)[C@H](O)[C@H]2O)[C@H]1O (stereo partly shown) [NCGC00385321] |  |  | 35.4 | 2.4 | 2.4 | 105.7 |  |  | 
28 | C[C@H]1CC[C@@]2(OC1)O[C@H]1CC3[C@@H]4CC[C@@H]5C[C@@H](O[C@@H]6O[C@H](CO)[C@@H](O[C@@H]7O[C@H](CO[C@@H]8OC[C@@H](O)[C@H](O)[C@H]8O)[C@@H](O[C@@H]8O[C@H](CO)[C@H](O)[C@H](O)[C@H]8O)[C@H](O)[C@H]7O)[C@H](O)[C@H]6O)CC[C@]5(C)C4CC[C@]3(C)[C@H]1[C@@H]2C (stereo partly shown) [NCGC00385658] |  |  | 78.8 | 3.4 | 3.03 | 68.4 |  |  | 
29 | C[C@@H]1O[C@@H](O[C@H]2[C@H](OC(=O)[C@]34CCC(C)(C)C[C@H]3C3=CCC5[C@@]6(C)CC[C@H](O[C@@H]7O[C@H](CO[C@@H]8OC[C@H](O)[C@H](O)[C@H]8O)[C@@H](O)[C@H](O)[C@H]7O)C(C)(C)C6CC[C@@]5(C)[C@]3(C)C[C@H]4O)OC[C@@H](O)[C@@H]2O)[C@H](O)[C@H](O[C@@H]2OC[C@](O)(CO)[C@H]2O)[C@H]1O[C@@H]1OC[C@H](O)[C@H](O[C@@H]2OC[C@@H](O)[C@H](O)[C@H]2O)[C@H]1O (stereo partly shown) [NCGC00385743] |  |  | 67.2 | 2.14 | 0.95 | 59.8 |  |  | 
30 | CC(=O)OC1[C@H]2[C@@H](C[C@@H](C)[C@@H]3C=CC(=O)[C@@]13C)OC(=O)[C@@H]2C (stereo partly shown) [NCGC00385908] |  |  | 44.4 | 11.2 | 7.08 | 67.1 |  |  | 
31 | CC(C)(C)c1ccc(C(=O)Nc2cc(Cl)c(Br)cc2C(=O)O)cc1 [NCGC00386831] |  |  | 78.8 | 10 | 11.2 | 32.0 |  |  | 
32 | Cc1cc(N2CCN(C(=O)Oc3ccc(-c4ccccc4)cn3)CC2)c2ccccc2n1 [NCGC00386928] | 63.4 | 12.6 | 68.1 | 12.6 |  |  |  |  | 
33 | CCCCOC(=O)c1ccnc2cc(C(OCCN3CCCCC3)c3ccccc3C)sc12 (stereo not shown) [NCGC00481621] |  |  | 35.5 | 12.6 | 10 | 88.9 |  |  | 
34 | Cl.Cl.O=S(=O)(c1cccc2ccccc12)n1ccc2ccc(N3CCN4CCCC4C3)cc21 (stereo not shown) [NPS ALX Compound 4a dihydrochloride] | 100.0 | 12.6 | 93.1 | 12.6 |  |  |  |  | 
35 | COc1cccc([C@@H](C)NCCCc2ccccc2Cl)c1 [NPS-R568] |  |  | 15.8 | 12.6 | 11.2 | 78.0 |  |  | 
36 | CC/C(=C(/CC)c1ccc(O)c(CN(CC)CC)c1)c1ccc(O)c(CN(CC)CC)c1 [NSC 33994, reference compound] |  |  |  |  |  |  | 107.6 | 8.9 | <30
